ChEMBL document CHEMBL5523741, “Development of an Orally Bioavailable LCK PROTAC Degrader as a Potential Therapeutic Approach to T-Cell Acute Lymphoblastic Leukemia” (J Med Chem, 2024)
Converted amounts (≈) assume the structure as drawn. One block for each compound: values may come before it. The source made the active and inactive calls. The rule behind the calls is not given here.

How the values were obtained:
KOPTK1 [1] = assay: Antiproliferative activity against human KOPT-K1 cells assessed as effect on cell viability measured for 72 hrs by celltiter glo assay; assay type: functional; conditions: read-out: LC50 (the source's name)
[2] = molecular target: T1, Protein cereblon/Tyrosine-protein kinase Lck (Homo sapiens, UniProt P06239+Q96SW2); assay: PROTAC activity at HiBit-tagged LCK/CRBN in human KOPT-K1 cells assessed as induction of LCK degradation incubated for 6 hrs by Nano-Glo HiBiT assay; assay type: cell-based
[3] = molecular target: T1, Protein cereblon/Tyrosine-protein kinase Lck; assay: PROTAC activity at HiBit-tagged LCK/CRBN in human KOPT-K1 cells assessed as induction of LCK degradation incubated for 6 hrs by Nano-Glo HiBiT assay relative to control; assay type: cell-based
Target sequence in this assay (P06239 2-509 limits assumed): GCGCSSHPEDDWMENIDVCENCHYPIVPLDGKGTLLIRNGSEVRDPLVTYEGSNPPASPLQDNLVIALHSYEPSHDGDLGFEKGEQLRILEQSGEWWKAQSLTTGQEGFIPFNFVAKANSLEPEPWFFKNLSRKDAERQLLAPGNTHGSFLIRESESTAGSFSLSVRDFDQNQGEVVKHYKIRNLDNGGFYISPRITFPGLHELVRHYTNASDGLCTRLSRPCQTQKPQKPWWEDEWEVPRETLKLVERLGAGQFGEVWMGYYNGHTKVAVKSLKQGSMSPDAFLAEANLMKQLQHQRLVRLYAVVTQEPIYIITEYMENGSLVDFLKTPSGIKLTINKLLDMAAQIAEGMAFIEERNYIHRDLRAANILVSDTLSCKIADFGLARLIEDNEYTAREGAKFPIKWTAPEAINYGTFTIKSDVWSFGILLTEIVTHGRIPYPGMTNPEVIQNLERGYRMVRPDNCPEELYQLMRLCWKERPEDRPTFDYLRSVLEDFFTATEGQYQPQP
Target sequence in this assay (Q96SW2 whole entry partner): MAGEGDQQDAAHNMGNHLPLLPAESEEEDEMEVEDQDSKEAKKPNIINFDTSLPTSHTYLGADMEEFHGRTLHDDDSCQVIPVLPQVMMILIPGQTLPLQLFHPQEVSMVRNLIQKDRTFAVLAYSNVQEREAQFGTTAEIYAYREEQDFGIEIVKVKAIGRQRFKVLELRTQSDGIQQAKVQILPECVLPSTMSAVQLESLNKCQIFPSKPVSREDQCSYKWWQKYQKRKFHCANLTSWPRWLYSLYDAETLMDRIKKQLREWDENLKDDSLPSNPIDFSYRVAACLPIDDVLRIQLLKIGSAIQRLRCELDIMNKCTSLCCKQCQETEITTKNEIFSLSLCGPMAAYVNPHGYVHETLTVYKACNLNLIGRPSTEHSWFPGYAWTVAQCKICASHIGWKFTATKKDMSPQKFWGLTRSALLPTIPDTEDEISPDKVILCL

[4] = Aqueous solubility of the compound incubated for 18 hrs by UPLC-SQDMS; assay type: physicochemical; conditions: buffer
[5] = Metabolic stability in mouse liver microsomes assessed as half life in presence of NADPH by UPLC-MS/MS analysis; assay type: ADME, Microsome
[6] = Cmax in CD-1 mouse at 3 mg/kg, iv measured up to 24 hrs; assay type: ADME, organism-based; conditions: in vivo
[7] = AUClast in CD-1 mouse at 3 mg/kg, iv measured up to 24 hrs; assay type: ADME, organism-based; conditions: in vivo
[8] = molecular target: T1, Protein cereblon/Tyrosine-protein kinase Lck; assay: PROTAC activity at HiBit-tagged LCK/CRBN in human KOPT-K1 cells assessed as reduction in LCK level at 0.1 to 1000 nM incubated for 6 hrs immunoblotting analysis; assay type: cell-based; conditions: dose 0.1-1000 nM
Target sequence in this assay (P06239 2-509 limits assumed): as the sequence (P06239 2-509 limits assumed) above
Target sequence in this assay (Q96SW2 whole entry partner): as the sequence (Q96SW2 whole entry partner) above

[9] = AUClast in CD-1 mouse at 30 mg/kg, po measured up to 24 hrs; assay type: ADME, organism-based; conditions: in vivo
KOPTK1 [10] = assay: Antiproliferative activity against human KOPT-K1 cells assessed as inhibition of cell growth at 100 nM measured for 280 hrs by celltiter glo assay; assay type: functional, cell-based
[11] = Oral bioavailability in CD-1 mouse at 30 mg/kg measured up to 24 hrs; assay type: ADME, organism-based; conditions: in vivo
KOPTK1 [12] = assay: Downregulation of GSPT1 in human KOPT-K1 cells measured for 6 hrs by tandem mass tag proteomic assay; assay type: functional, cell-based
[13] = molecular target: T1, Protein cereblon/Tyrosine-protein kinase Lck; assay: PROTAC activity at HiBit-tagged LCK/CRBN in human KOPT-K1 cells assessed as induction of LCK degradation at 0.1 to 1000 nM incubated for 6 hrs by Western blot analysis relative to control; assay type: cell-based; conditions: dose 0.1-1000 nM
Target sequence in this assay (P06239 2-509 limits assumed): as the sequence (P06239 2-509 limits assumed) above
Target sequence in this assay (Q96SW2 whole entry partner): as the sequence (Q96SW2 whole entry partner) above

[14] = Tmax in CD-1 mouse at 30 mg/kg, po measured up to 24 hrs; assay type: ADME, organism-based; conditions: in vivo
Mus musculus [15] = assay: In-vivo PROTAC activity at LCK/CRBN in NOD Cg-Prkdc scid Il2rg tmIWjl (NSG) mouse model assessed as reduction in LCK level in Bone marrow at 30 mg/kg, po measured for 24 hrs by Western blot analysis; assay type: functional; parameters: scale not given: the % may be the effect or the level left
[16] = Volume of distribution at steady state in CD-1 mouse at 30 mg/kg, po measured up to 24 hrs; assay type: ADME, organism-based; conditions: in vivo
KOPTK1 [17] = assay: Downregulation of IKZF3 in human KOPT-K1 cells measured for 6 hrs by tandem mass tag proteomic assay; assay type: functional, cell-based
KOPTK1 [18] = assay: Antiproliferative activity against human KOPT-K1 cells assessed as inhibition of cell growth at 100 nM measured for 18 hrs by celltiter glo assay; assay type: functional, cell-based
[19] = Half life in CD-1 mouse at 3 mg/kg, iv measured up to 24 hrs; assay type: ADME, organism-based; conditions: in vivo
[20] = Clearance in CD-1 mouse at 30 mg/kg, po measured up to 24 hrs; assay type: ADME, organism-based; conditions: in vivo
[21] = Apparent permeability of compound across apical to basolateral side in human Caco-2 cells; assay type: ADME, cell-based
[22] = Clearance in CD-1 mouse at 3 mg/kg, iv measured up to 24 hrs; assay type: ADME, organism-based; conditions: in vivo
KOPTK1 [23] = assay: Downregulation of IKZF1 in human KOPT-K1 cells measured for 6 hrs by tandem mass tag proteomic assay; assay type: functional, cell-based
[24] = Volume of distribution at steady state in CD-1 mouse at 3 mg/kg, iv measured up to 24 hrs; assay type: ADME, organism-based; conditions: in vivo, read-out: Vdss
[25] = Drug concentration in CD-1 mouse plasma at 30 mg/kg, po measured after 4 hrs by UPLC-MS/MS analysis; assay type: ADME, organism-based
KOPTK1 [26] = assay: Downregulation of CISH in human KOPT-K1 cells measured for 6 hrs by tandem mass tag proteomic assay; assay type: functional, cell-based
[27] = Stability in CD-1 mouse plasma assessed as half life; assay type: ADME, cell-free
[28] = Cmax in CD-1 mouse at 30 mg/kg, po measured up to 24 hrs; assay type: ADME, organism-based; conditions: in vivo
[29] = Half life in CD-1 mouse at 30 mg/kg, po measured up to 24 hrs; assay type: ADME, organism-based; conditions: in vivo
KOPTK1 [30] = assay: Downregulation of CSK in human KOPT-K1 cells measured for 6 hrs by tandem mass tag proteomic assay; assay type: functional, cell-based
[31] = Apparent permeability of compound across basolateral to apical side in human Caco-2 cells; assay type: ADME, cell-based
Mus musculus [32] = assay: In-vivo PROTAC activity at LCK/CRBN in NOD Cg-Prkdc scid Il2rg tmIWjl (NSG) mouse model assessed as reduction in LCK level in Bone marrow at 30 mg/kg, po measured for 6 hrs by Western blot analysis; assay type: functional; parameters: scale not given: the % may be the effect or the level left
KOPTK1 [33] = assay: Downregulation of CK1alpha in human KOPT-K1 cells measured for 6 hrs by tandem mass tag proteomic assay; assay type: functional, cell-based
KOPTK1 [34] = assay: Downregulation of YES1 in human KOPT-K1 cells measured for 6 hrs by tandem mass tag proteomic assay; assay type: functional, cell-based
KOPTK1 [35] = assay: Downregulation of EPHB1 in human KOPT-K1 cells measured for 6 hrs by tandem mass tag proteomic assay; assay type: functional, cell-based
KOPTK1 [36] = assay: Downregulation of SIK2 in human KOPT-K1 cells measured for 6 hrs by tandem mass tag proteomic assay; assay type: functional, cell-based
[37] = Efflux ratio of apparent permeability across basolateral to apical over apical to basolateral in human Caco-2 cells; assay type: ADME, cell-based
[38] = molecular target: T1, Protein cereblon/Tyrosine-protein kinase Lck; assay: PROTAC activity at HiBit-tagged LCK/CRBN in human KOPT-K1 cells assessed as induction of LCK degradation incubated for 6 hrs by Western blot analysis; assay type: cell-based
Target sequence in this assay (P06239 whole entry): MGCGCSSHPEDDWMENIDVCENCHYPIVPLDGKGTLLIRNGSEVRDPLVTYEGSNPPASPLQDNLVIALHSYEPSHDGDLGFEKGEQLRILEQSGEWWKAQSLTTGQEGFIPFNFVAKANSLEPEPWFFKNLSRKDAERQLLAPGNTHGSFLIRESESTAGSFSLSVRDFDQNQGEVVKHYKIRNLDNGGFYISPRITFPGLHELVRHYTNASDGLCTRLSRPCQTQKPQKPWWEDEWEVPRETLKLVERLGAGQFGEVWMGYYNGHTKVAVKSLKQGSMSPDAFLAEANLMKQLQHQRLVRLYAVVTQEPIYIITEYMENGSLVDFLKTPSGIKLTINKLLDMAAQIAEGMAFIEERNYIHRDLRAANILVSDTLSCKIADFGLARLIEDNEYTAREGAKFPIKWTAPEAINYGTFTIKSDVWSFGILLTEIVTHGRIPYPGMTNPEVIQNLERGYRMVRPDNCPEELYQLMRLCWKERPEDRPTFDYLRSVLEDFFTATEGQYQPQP
Target sequence in this assay (Q96SW2 whole entry): as the sequence (Q96SW2 whole entry partner) above

KOPTK1 [39] = assay: Downregulation of GAK in human KOPT-K1 cells measured for 6 hrs by tandem mass tag proteomic assay; assay type: functional, cell-based
[40] = Oral bioavailability in CD-1 mouse at 10 mg/kg measured up to 24 hrs by LC-MS/MS analysis; assay type: ADME, organism-based; conditions: in vivo
[41] = Clearance in CD-1 mouse at 3 mg/kg, iv measured up to 24 hrs by LC-MS/MS analysis; assay type: ADME, organism-based; conditions: in vivo

- Emax [3]: 90%
- solubility at 18 h [4]: 2.08 µM (≈ 1.58 µg/mL)
- half-life [5]: 6.9 h
Structure (SMILES): Cc1nc(Nc2ncc(C(=O)Nc3c(C)cccc3Cl)s2)cc(N2CCN(CCCN3CCN(c4ccc(C5CCC(=O)NC5=O)cc4)CC3)CC2)n1 (stereo not drawn)

- Emax [3]: 62%
- solubility at 18 h [4]: 1.87 µM (≈ 1.39 µg/mL)
- DC50 [2]: 53 nM
- half-life [5]: 4 h
Structure (SMILES): Cc1nc(Nc2ncc(C(=O)Nc3c(C)cccc3Cl)s2)cc(N2CCN(CCN3CCN(c4ccc(C5CCC(=O)NC5=O)cc4)CC3)CC2)n1 (stereo not drawn)

- Emax [3]: 93%
- solubility at 18 h [4]: 0.15 µM (≈ 0.118 µg/mL)
- half-life [5]: 1.06 h
Structure (SMILES): Cc1nc(Nc2ncc(C(=O)Nc3c(C)cccc3Cl)s2)cc(N2CCN(CCCC(=O)N3CCN(c4ccc(C5CCC(=O)NC5=O)cc4)CC3)CC2)n1 (stereo not drawn)

- Emax [3]: 84%
- solubility at 18 h [4]: 7.54 µM (≈ 5.82 µg/mL)
- Papp A→B [21]: 1.15 ×10⁻⁶ cm/s
- bioavailability [40]: 3.1%
- half-life [27]: 30.1 h
- clearance [41]: 169 mL/min/kg
- DC50 [2]: 4.48 nM
- Papp B→A [31]: 13.3 ×10⁻⁶ cm/s
- half-life [5]: 10 h
- efflux ratio [37]: 11.6
Structure (SMILES): Cc1nc(Nc2ncc(C(=O)Nc3c(C)cccc3Cl)s2)cc(N2CCN(CCCN3CCN(Cc4ccc(C5CCC(=O)NC5=O)cc4)CC3)CC2)n1 (stereo not drawn)

- Emax [3]: 83%
- solubility at 18 h [4]: 14.5 µM (≈ 11.2 µg/mL)
- half-life [5]: 2.6 h
Structure (SMILES): Cc1nc(Nc2ncc(C(=O)Nc3c(C)cccc3Cl)s2)cc(N2CCN(CCCN3CC4CC3CN4c3ccc(C4CCC(=O)NC4=O)cc3)CC2)n1 (stereo not drawn)

Further lines, the compound ahead of its results:

Structure (SMILES): Cc1nc(Nc2ncc(C(=O)Nc3c(C)cccc3Cl)s2)cc(N2CCC(CN3CCN(c4ccc(C5CCC(=O)N(C)C5=O)cc4)CC3)CC2)n1 (stereo not drawn)
- CC50 (KOPTK1 [1]): 1.98 nM
- Activity [2]: inactive

Structure (SMILES): Cc1nc(Nc2ncc(C(=O)Nc3c(C)cccc3Cl)s2)cc(N2CCC(CN3CCN(c4ccc(C5CCC(=O)NC5=O)cc4)CC3)CC2)n1 (stereo not drawn)
- Cmax [6]: 1450 ng/mL
- AUC(0-t) at 24 h [7]: 3560 ng·h/mL
- Activity [8]: Active
- AUC(0-t) at 24 h [9]: 20700 ng·h/mL
- Activity (KOPTK1 [10]): Active
- bioavailability [11]: 58%
- Activity (KOPTK1 [12]): inactive
- Emax [3]: 77%
- Emax [13]: 98%
- Tmax [14]: 1 h
- Activity (Mus musculus [15]): 5%
- Vdss [16]: 6.34 L/kg
- CC50 (KOPTK1 [1]): 20.1 nM
- Activity (KOPTK1 [17]): inactive
- Activity (KOPTK1 [18]): Active
- half-life [19]: 3.51 h
- CL/F [20]: 24 mL/min/kg
- Papp A→B [21]: 0.302 ×10⁻⁶ cm/s
- clearance [22]: 14 mL/min/kg
- Activity (KOPTK1 [23]): inactive
- Vd [24]: 3.51 L/kg
- concentration at 4 h [25]: 3290 ng/mL
- Activity (KOPTK1 [26]): Active
- half-life [27]: 45.2 h
- Cmax [28]: 2240 ng/mL
- half-life [29]: 3.05 h
- DC50 [2]: 17.5 nM
- Activity (KOPTK1 [30]): Active
- Papp B→A [31]: 1.13 ×10⁻⁶ cm/s
- Activity (Mus musculus [32]): 10%
- Activity (KOPTK1 [33]): inactive
- half-life [5]: 2 h
- Activity (KOPTK1 [34]): inactive
- Activity (KOPTK1 [35]): Active
- Activity (KOPTK1 [36]): inactive
- efflux ratio [37]: 3.75
- DC50 [38]: 1.21 nM
- Activity (KOPTK1 [39]): inactive

Structure (SMILES): Cc1nc(Nc2ncc(C(=O)Nc3c(C)cccc3Cl)s2)cc(N2CCN(CCCN3CCC4(CC3)CCN(c3ccc(C5CCC(=O)NC5=O)cc3)CC4)CC2)n1 (stereo not drawn)
- Emax [3]: 93%
- solubility at 18 h [4]: 1.4 µM (≈ 1.16 µg/mL)
- Papp A→B [21]: 0.231 ×10⁻⁶ cm/s
- concentration at 4 h [25]: 18 ng/mL
- half-life [27]: 47.4 h
- Papp B→A [31]: 5.3 ×10⁻⁶ cm/s
- half-life [5]: 10 h

Structure (SMILES): Cc1nc(Nc2ncc(C(=O)Nc3c(C)cccc3Cl)s2)cc(N2CCN(CCCC(=O)N3CCC(CN4CCN(c5ccc(C6CCC(=O)NC6=O)cc5)CC4)CC3)CC2)n1 (stereo not drawn)
- Emax [3]: 84%
- solubility at 18 h [4]: 0.65 µM (≈ 0.574 µg/mL)
- half-life [5]: 0.67 h
